We go through 1 substance from patent US20020146823A1, “Method for promoting hematopoietic and mesenchymal cell proliferation and differentiation” (The University of Southern California, priority 1997, published 2002).

Assay [1] deals with murine mesenchymal stem cells. Description: GM-CSF secretion by mouse mesenchymal stem cells (ELISA). The format is cell-based, C57B1/6 mice. To be noted: 0.01 to 100 μg/ml; 24, 48 or 72 hours. As for the experimental part:
One factor whose production is induced during differentiation of mesenchymal stromal cells is granulocyte-macrophage-colony stimulating factor (GM-CSF). Therefore, the effect of AII on the differentiation of mesenchymal cells was assessed by the production of colony stimulating factors, specifically GM-CSF, into the culture supernatant.
Bone marrow cells were harvested from the femur and tibia of C57B1/6 mice (Battin and Kingdom, Gilroy, Calif.) with saline containing 2% fetal calf serum. Thereafter, the red blood cells were lysed by brief exposure to a hypotonic ammonium chloride solution. The nucleated cells were then resuspended in 3 ml of […] phosphate buffered saline (PBS; pH 7.2) and rapidly layered over 7 ml of Percoll (70% Percoll gradient separation). This combination of nucleated bone marrow cells and Percoll were centrifuged at 1800 rpm for 20 minutes. After centrifugation, the cells in the upper 25% of the Percoll gradient were harvested and washed 3 times with PBS to remove excess Percoll. The cells were then resuspended at 4×10^5 cells/ml in alpha minimal essential medium containing 10% horse serum, 10% fetal calf serum and 5×10^−5 M 2-mercaptoethanol. […]
After all samples were collected, the level of GM-CSF in the supernatant was measured by Quantikine ELISA (R & D Systems, Minneapolis, Minn.) according to the manufacturer's instructions.
On the technique in general: An ELISA detects its analyte on a solid surface through an enzyme-linked reagent.

Assay [2] deals with Murine Peritoneal Macrophages. The assay can be described thus: Phagocytic capability of murine peritoneal macrophages (opsonized yeast ingestion). The class given is cell-based, C57B1/6 mice. As for the experimental part: Resident peritoneal macrophages have very little phagocytic activity. Exposure of macrophages to inflammatory or activating agents will increase this macrophage function. Resident peritoneal macrophages were harvested from C57B1/6 mice or Sprague Dawley rats and resuspended at a concentration of 1×10^6 cells/ml in phosphate buffered saline (PBS). Five separate 0.5 ml cell aliquots were placed on a glass coverslip in a 35 mm petri dish. Prior to incubation, either 0.5 ml of PBS, AII, or AII analogues or fragments at between 1-1000 ug/ml final concentration was added to the individual cover slips. The dishes containing the cover slips were then incubated at 37° C. for 4 hours, after which the cover slips were washed 3 to 6 times with PBS. Opsonized yeast particles (Sigma Chemical Co.) (yeast opsonized with adult serum from the same species as that under study) were added to the cover slips and incubated for 2 hours, after which the cover slips were again washed with PBS and inverted onto a glass slide. The number of macrophages that ingested yeast and the number of yeast per macrophage ingested was then determined microscopically. At least 100 macrophages per coverslip were counted. The data from this study are summarized in Tables 3 and 4 and FIGS. 1 and 2.

In assay [3] the test system is rat peritoneal macrophages. Description: Respiratory burst (hydrogen peroxide generation) in rat peritoneal macrophages. To be noted: alone and in response to PMA; 4 hours exposure. The format is cell-based. As for the experimental part:
(§1) The respiratory burst of leukocytes (macrophages and polymorphonuclear neutrophils) is one component of the mediator system used to kill bacteria. As with phagocytosis, the level of this respiratory burst activity in resident macrophages is low. […] Studies were conducted to assess the effect of in vitro exposure of murine or rat peritoneal macrophages and human peripheral blood mononuclear cells (PBMC) to various concentrations of AII on the capacity to generate hydrogen peroxide via the respiratory burst system. For the human studies, five different donors were examined.
(§2) The murine or rat peritoneal cells were harvested by lavage with 5-15 ml of cold PBS with 0.5% bovine serum albumin. The human PBMC were harvested by venipuncture from normal human volunteers and isolated from peripheral blood by Ficoll Hypaque density centrifugation. After isolation, the cells were resuspended at 1×10^6 cells/ml and placed at 100 μl per well into 96 well plates. The cells were incubated with various concentrations of AII or AII analogues and fragments for 4 hours at 37° C. The cells were then preloaded with a fluorescent probe for hydrogen peroxide, 2,7 dichlorofluorescein acetate, which is nonfluorescent in the absence of hydrogen peroxide. […] One hour after stimulation the level of fluorescence produced was measured on a Cytofluor 2350 multiwell fluorometer.

In assay [4] the test system is murine peritoneal macrophages. Description: Respiratory burst (hydrogen peroxide generation) in murine peritoneal macrophages. The format is cell-based. To be noted: alone and in response to PMA; 4 hours exposure. The protocol:
as §1, §2

In assay [5] the test system is murine bone marrow stem cells. The conditions noted are these: cited from earlier work.
Another assay deals with T1, AT2 receptor (Homo sapiens, UniProt P50052).
T1 sequence (P50052 1-363): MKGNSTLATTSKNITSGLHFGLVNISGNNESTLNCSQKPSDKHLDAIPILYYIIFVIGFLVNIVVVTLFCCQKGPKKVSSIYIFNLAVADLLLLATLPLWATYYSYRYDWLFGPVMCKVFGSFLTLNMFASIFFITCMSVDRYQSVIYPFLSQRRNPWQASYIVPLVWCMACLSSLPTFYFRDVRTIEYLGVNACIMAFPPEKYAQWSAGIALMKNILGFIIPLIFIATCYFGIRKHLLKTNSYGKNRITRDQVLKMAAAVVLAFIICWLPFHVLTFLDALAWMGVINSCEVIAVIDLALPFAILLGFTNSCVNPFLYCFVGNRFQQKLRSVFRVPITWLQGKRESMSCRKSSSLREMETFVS
To be noted: cited from earlier work.

For “Asp-Arg-Val-Tyr-Ile-His-Pro-Phe (DRVYIHPF; printed: Asp-Arg-Val-Tyr-Ile-His-Pro-Phe) [AII, octapeptide present in humans and other species; known pressor agent, commercially available]”, the “production of GM-CSF” value in assay [1] is given as “induced an increase”. In assay [2] (AII 10 μg/ml), the “# Macrophages with Yeast, Yeast # 0” value was determined as 100 and the “# Macrophages with Yeast, Yeast # 7-9” value amounted to 0. In assay [2] (AII 100 μg/ml), the “# Macrophages with Yeast, Yeast # 0” value is listed as 100; the “# Macrophages with Yeast, Yeast # 7-9” value turned out to be 0; the “% Ingesting” value is 16.7%. Moreover, in assay [2] (AII 1000 μg/ml), the “# Macrophages with Yeast, Yeast # 0” value is listed as 100; the “# Macrophages with Yeast, Yeast # 7-9” value worked out at 0; the “% Ingesting” value is 25.6%. In assay [2] (exposure to 10 μg/ml or greater), the “phagocytic capability of peritoneal macrophages” value was “tremendously increased”. Moreover, in assay [2] (highest concentration), the “% phagocytic” value is listed as “over 25%” and the “yeast observed per macrophage, on average” value was approximately 1. Also, the “increase in the number of macrophages able to phagocytose” value in assay [2] (highest concentration vs resident population) is recorded as 25 fold. The “ability of leukocytes to generate hydrogen peroxide” value in assay [3] is “increased the ability of leukocytes to generate hydrogen peroxide both alone and in response to stimulation with PMA”. In assay [4], the “ability of leukocytes to generate hydrogen peroxide” value is “increased the ability of leukocytes to generate hydrogen peroxide both alone and in response to stimulation with PMA”. Further, in assay [5] (absence of exogenous colony stimulating factors), the formation of colonies entry is “increases the formation of colonies”. Besides, in assay [5] (lineage-negative bone marrow cells expressing Sca1), the “number and size of colonies formed” value was “increased the number and size of colonies formed only in the presence of exogenous colony stimulating factors”. For the same substance, the “affinity for AT2 relative to AT1” value in the assay with AT2 receptor is on record as 100 times.
